Data on 28 compounds can be found in ChEMBL document CHEMBL1136997, “An atom economic synthesis and antitubercular evaluation of novel spiro-cyclohexanones” (2009).

By MIC is commonly meant the smallest concentration in the dilution series that meets the test's criterion for growth inhibition. Low readings indicate a more susceptible organism, high ones a less susceptible organism.

Each structure is given as a SMILES string. In brackets after ≈: the same amount, converted by molar mass.

The experiment concerns Mycobacterium tuberculosis. The experiment in a line: Antimycobacterial activity against log phase culture of Mycobacterium tuberculosis H37Rv by agar dilution method. It counts as functional. For orientation: In agar dilution, organisms are placed on agar that contains the substance at set levels.
The compound `O=C1c2cccc3cccc(c23)[C@]12N1CSC[C@H]1[C@H](c1ccc(Cl)cc1Cl)[C@]21CCC/C(=C\c2ccc(Cl)cc2Cl)C1=O` came in with an MIC of 0.4 µg/mL (≈ 0.601 µM).

`O=C1c2cccc3cccc(c23)[C@]12N1CCC[C@H]1[C@H](c1ccccc1Cl)[C@]21CCC/C(=C\c2ccccc2Cl)C1=O`: the MIC worked out at 3.13 µg/mL (≈ 5.41 µM).

`Cc1ccccc1/C=C1\CCC[C@@]2(C1=O)[C@@H](c1ccccc1C)[C@H](c1ccccc1)N[C@@]21C(=O)c2cccc3cccc1c23` yielded an MIC of 1.78 µg/mL (≈ 3.1 µM).

For `O=C1c2cccc3cccc(c23)[C@]12N1CSC[C@H]1[C@H](c1ccc(Cl)cc1)[C@]21CCC/C(=C\c2ccc(Cl)cc2)C1=O`, the lowest concentration to inhibit growth (MIC) was 6.25 µg/mL (≈ 10.5 µM). Compared with the last compound, the MIC is about 3.5-fold higher.

For the compound `CN1C[C@H](c2ccccc2Cl)[C@]2(CCC/C(=C\c3ccccc3Cl)C2=O)[C@]12C(=O)c1cccc3cccc2c13`, the MIC amounted to 6.25 µg/mL (≈ 11.3 µM).

Take `CN1C[C@H](c2cccc(F)c2)[C@]2(CCC/C(=C\c3cccc(F)c3)C2=O)[C@]12C(=O)c1cccc3cccc2c13`: the MIC is 12.5 µg/mL (≈ 24.1 µM).

`CN1C[C@H](c2cccc3ccccc23)[C@]2(CCC/C(=C\c3cccc4ccccc34)C2=O)[C@]12C(=O)c1cccc3cccc2c13` gave an MIC of 6.25 µg/mL (≈ 10.7 µM).

The compound `O=C1c2cccc3cccc(c23)[C@]12N1CSC[C@H]1[C@H](c1ccc(F)cc1)[C@]21CCC/C(=C\c2ccc(F)cc2)C1=O` showed an MIC of 1.76 µg/mL (≈ 3.12 µM).

`CN1C[C@H](c2ccc(Cl)cc2)[C@]2(CCC/C(=C\c3ccc(Cl)cc3)C2=O)[C@]12C(=O)c1cccc3cccc2c13` returned a minimum inhibitory concentration (MIC) of 12.5 µg/mL (≈ 22.6 µM). Compared with the last compound, the MIC is about 7.1-fold higher.

Turning to `Cc1ccc(/C=C2\CCC[C@@]3(C2=O)[C@@H](c2ccc(C)cc2)[C@@H]2CCCN2[C@@]32C(=O)c3cccc4cccc2c34)cc1`, the MIC came out at 6.25 µg/mL (≈ 11.6 µM).

As to `Cc1ccc(/C=C2\CCC[C@@]3(C2=O)[C@@H](c2ccc(C)cc2)[C@@H]2CSCN2[C@@]32C(=O)c3cccc4cccc2c34)cc1`, the lowest concentration to inhibit growth (MIC) was 6.25 µg/mL (≈ 11.2 µM).

Take `O=C1c2cccc3cccc(c23)[C@]12N1CCC[C@H]1[C@H](c1ccc(F)cc1)[C@]21CCC/C(=C\c2ccc(F)cc2)C1=O`: the minimal inhibitory concentration (MIC) stood at 1.78 µg/mL (≈ 3.26 µM).

For the compound `O=C1c2cccc3cccc(c23)[C@]12N1CSC[C@H]1[C@H](c1ccccc1)[C@]21CCC/C(=C\c2ccccc2)C1=O`, the MIC was 6.25 µg/mL (≈ 11.8 µM).

For `O=C1c2cccc3cccc(c23)[C@]12N[C@@H](c1ccccc1)[C@H](c1ccccc1Cl)[C@]21CCC/C(=C\c2ccccc2Cl)C1=O`, the minimum inhibitory concentration (MIC) stood at 0.78 µg/mL (≈ 1.27 µM).

`O=C1c2cccc3cccc(c23)[C@]12N1CCC[C@H]1[C@H](c1ccc(Cl)cc1)[C@]21CCC/C(=C\c2ccc(Cl)cc2)C1=O` returned an MIC of 1.78 µg/mL (≈ 3.08 µM).

`O=C1c2cccc3cccc(c23)[C@]12N[C@@H](c1ccccc1)[C@H](c1ccc(F)cc1)[C@]21CCC/C(=C\c2ccc(F)cc2)C1=O` came in with a minimum inhibitory concentration (MIC) of 6.25 µg/mL (≈ 10.7 µM).

`O=C1c2cccc3cccc(c23)[C@]12N[C@@H](c1ccccc1)[C@H](c1ccc(Cl)cc1Cl)[C@]21CCC/C(=C\c2ccc(Cl)cc2Cl)C1=O`: the MIC stood at 0.4 µg/mL (≈ 0.585 µM).

As for `O=C1c2cccc3cccc(c23)[C@]12N[C@@H](c1ccccc1)[C@H](c1ccccc1)[C@]21CCC/C(=C\c2ccccc2)C1=O`, 3.13 µg/mL (≈ 5.74 µM) was the least that counted as inhibitory (MIC).

The compound `Cc1ccc(/C=C2\CCC[C@@]3(C2=O)[C@@H](c2ccc(C)cc2)CN(C)[C@@]32C(=O)c3cccc4cccc2c34)cc1` registered a minimum inhibitory concentration (MIC) of 25 µg/mL (≈ 48.9 µM).

In turn, `Cc1ccccc1/C=C1\CCC[C@@]2(C1=O)[C@@H](c1ccccc1C)CN(C)[C@@]21C(=O)c2cccc3cccc1c23` came in with an MIC of 12.5 µg/mL (≈ 24.4 µM).

In turn, `CN1C[C@H](c2ccccc2)[C@]2(CCC/C(=C\c3ccccc3)C2=O)[C@]12C(=O)c1cccc3cccc2c13` showed an MIC of 12.5 µg/mL (≈ 25.8 µM).

In turn, `CN1C[C@H](c2ccc(Cl)cc2Cl)[C@]2(CCC/C(=C\c3ccc(Cl)cc3Cl)C2=O)[C@]12C(=O)c1cccc3cccc2c13` came in with an MIC of 3.13 µg/mL (≈ 5.04 µM).

For `O=C1c2cccc3cccc(c23)[C@]12N[C@@H](c1ccccc1)[C@H](c1ccc(Cl)cc1)[C@]21CCC/C(=C\c2ccc(Cl)cc2)C1=O`, 6.25 µg/mL (≈ 10.2 µM) was the least that counted as inhibitory (MIC). This MIC lies about 2-fold higher than the previous one.

As to `COc1ccc(/C=C2\CCC[C@@]3(C2=O)[C@@H](c2ccc(OC)cc2)CN(C)[C@@]32C(=O)c3cccc4cccc2c34)cc1`, the MIC amounted to 25 µg/mL (≈ 46 µM).

In turn, `O=C1c2cccc3cccc(c23)[C@]12N1CCC[C@H]1[C@H](c1ccccc1)[C@]21CCC/C(=C\c2ccccc2)C1=O` came in with an MIC of 12.5 µg/mL (≈ 24.5 µM).

In turn, `Cc1ccccc1/C=C1\CCC[C@@]2(C1=O)[C@@H](c1ccccc1C)[C@@H]1CSCN1[C@@]21C(=O)c2cccc3cccc1c23` had an MIC of 0.78 µg/mL (≈ 1.4 µM).

The compound `Cc1ccc(/C=C2\CCC[C@@]3(C2=O)[C@@H](c2ccc(C)cc2)[C@H](c2ccccc2)N[C@@]32C(=O)c3cccc4cccc2c34)cc1` displayed an MIC of 6.25 µg/mL (≈ 10.9 µM). This MIC is about 8-fold higher than that of the compound before.

`O=C1c2cccc3cccc(c23)[C@]12N1CSC[C@H]1[C@H](c1ccccc1Cl)[C@]21CCC/C(=C\c2ccccc2Cl)C1=O`: the MIC worked out at 0.78 µg/mL (≈ 1.31 µM).
